Read-outs that look alike come from different tables or passages of the source.
Columns and labels:
Format in all cases: cell-based
[1] = system: YEM 27 C. albicans ΔCDR1ΔCDR2 ΔBENΔFLU1; test: microbe, parasite or virus in culture; conditions: YEM 27, 24 hrs, 80% inhibition; for MIC of compound in the presence of fluconazole (+): 1/8 × MIC of fluconazole
YEM 51 C. glabrata wt = test: FEPI MIC with/without 1/8 fluconazole MIC at 24 hrs (Table 11)
YEM 53 C. krusei = test: as above
[2] = system: YEM 17 C. glabrata, CgCDR up; conditions: 24 hrs, 80% inhibition; for MIC of compound in the presence of fluconazole (+): 1/8 × MIC of fluconazole
[3] = system: YEM 24 C. albicans ΔCDR1, ΔCDR2; test: microbe, parasite or virus in culture; conditions: YEM 24, 24 hrs, 80% inhibition; for MIC of compound in the presence of fluconazole (+): 1/8 × MIC of fluconazole
[4] = system: YEM 13 C. albicans BEN up; test: microbe, parasite or virus in culture; conditions: YEM 13, 24 hrs, 80% inhibition; for MIC of compound in the presence of fluconazole (+): 1/8 × MIC of fluconazole
YEM 30 C. albicans wt = test: FEPI MIC with/without 1/8 fluconazole MIC at 24 hrs (Table 11)
Aspergillus fumigatus = test: FEPI MICs in combination with 1/4 the azole's MIC (Table 12); design: FEPI MIC (alone): unit not given here; conditions: for FEPI MIC with itraconazole, 60% Inh / FEPI MIC with itraconazole, 80% Inh: itraconazole 0.063 μg/ml (1/4 MIC); for FEPI MIC with ketoconazole, 60% Inh / FEPI MIC with ketoconazole, 80% Inh: ketoconazole 4 μg/ml (1/4 MIC); for FEPI MIC (alone): no azole, 35° C., CM Broth
Method: The combinations were tested against a series of Candida strain with known expression of efflux pumps or with complete deletion of all known pumps and Aspergillus fumigatus. Results are reported as minimum inhibitory concentration (MIC) of […] in the presence or absence of […]. A total of 27 distinct milbemycins were studied.

[5] = system: YEM 15 C. albicans, CDR1CDR2 up; test: microbe, parasite or virus in culture; conditions: YEM 15, 24 hrs, 80% inhibition; for MIC of compound in the presence of fluconazole (+): 1/8 × MIC of fluconazole
[6] = YEM 51, 1/8 × MIC of fluconazole, 24 hrs, 80% inhibition
[7] = YEM 53, 1/8 × MIC of fluconazole, 24 hrs, 80% inhibition
[8] = YEM 30, 1/8 × MIC of fluconazole, 24 hrs, 80% inhibition
[9] = fluconazole 32 μg/ml (1/4 MIC), 60% inhibition
[10] = fluconazole 32 μg/ml (1/4 MIC), 80% inhibition

| Molecule | MIC of compound in the presence of fluconazole (+) [1] [µg/mL] | MIC of compound in the absence of fluconazole (−) [1] [µg/mL] | MIC of compound in the presence of fluconazole (+) (YEM 51 C. glabrata wt; [6]) [µg/mL] | MIC of compound in the absence of fluconazole (−) (YEM 51 C. glabrata wt; YEM 51, 24 hrs, 80% inhibition) [µg/mL] | MIC of compound in the presence of fluconazole (+) (YEM 53 C. krusei; [7]) [µg/mL] | MIC of compound in the absence of fluconazole (−) (YEM 53 C. krusei; YEM 53, 24 hrs, 80% inhibition) [µg/mL] | MIC of compound in the presence of fluconazole (+) [2] [µg/mL] | MIC of compound in the absence of fluconazole (−) [2] [µg/mL] | MIC of compound in the presence of fluconazole (+) [3] [µg/mL] | MIC of compound in the absence of fluconazole (−) [3] [µg/mL] | MIC of compound in the presence of fluconazole (+) [4] [µg/mL] | MIC of compound in the absence of fluconazole (−) [4] [µg/mL] | MIC of compound in the absence of fluconazole (−) (YEM 30 C. albicans wt; YEM 30, 24 hrs, 80% inhibition) [µg/mL] | FEPI MIC with itraconazole, 60% Inh (Aspergillus fumigatus; 60% inhibition) | FEPI MIC with itraconazole, 80% Inh (Aspergillus fumigatus; 80% inhibition) | FEPI MIC with ketoconazole, 60% Inh (Aspergillus fumigatus; 60% inhibition) | FEPI MIC with ketoconazole, 80% Inh (Aspergillus fumigatus; 80% inhibition) | FEPI MIC (alone) (Aspergillus fumigatus; 80% inhibition) | MIC of compound in the presence of fluconazole (+) [5] | MIC of compound in the absence of fluconazole (−) [5] [µg/mL] | other results |
| --- | --- | --- | --- | --- | --- | --- | --- | --- | --- | --- | --- | --- | --- | --- | --- | --- | --- | --- | --- | --- | --- |
| C/C1=C\C[C@@H]2C[C@@H](C[C@]3(CC[C@H](C)[C@@H](C)O3)O2)OC(=O)[C@@H]2C=C(COC(=O)Cc3ccccc3)[C@@H](O)[C@H]3OC/C(=C\C=C\[C@H](C)C1)[C@]32O [Compound 25, 4a-O-phenylacetyl milbemycin α1] | > 64 | > 64 | 4 | > 64 | 0.06 | > 64 | 2 | > 64 | > 64 | > 64 | > 64 | > 64 | > 64 | 0.5 | >64 | ≦0.063 | 0.25 | >64 | ≦0.03 | > 64 | MIC of compound in the presence of fluconazole (+) (YEM 30 C. albicans wt; [8]): ≦0.03; FEPI MIC with fluconazole, 60% Inh (Aspergillus fumigatus; [9]): 1; FEPI MIC with fluconazole, 80% Inh (Aspergillus fumigatus; [10]): 2 |
| CCCCC(C)C(=O)OC1C(C)C(CC)OC2(CC3CC(CC=C(C)CC(C)C=CC=C4COC5C(O)C(C)=CC(C(=O)O3)C45O)O2)C1O (stereo not drawn) [Compound 10, Milbemycin α7] | > 64 | > 64 | 2 | > 64 | > 64 | > 64 | 1 | > 64 | > 64 | > 64 | > 64 | > 64 | > 64 | 1 | 8 | 0.25 | 0.25 | >64 | ≦0.03 | > 64 | MIC of compound in the presence of fluconazole (+) (YEM 30 C. albicans wt; [8]): ≦0.03; FEPI MIC with fluconazole, 60% Inh (Aspergillus fumigatus; [9]): 0.25; FEPI MIC with fluconazole, 80% Inh (Aspergillus fumigatus; [10]): 4 |
| CCC(C)C1OC2(CC3CC(CC=C(C)C(O)C(C)C=CC=C4COC5C(O)C(C)=CC(C(=O)O3)C45O)O2)CC(O)C1C (stereo not drawn) [Compound 14, Avermectin β2a aglycone] | > 64 | > 64 | 16 | > 64 | > 64 | > 64 | 16 | > 64 | > 64 | > 64 | > 64 | > 64 | > 64 | >64 | >64 | 2 | 16 | >64 | 2 µg/mL | > 64 | MIC of compound in the presence of fluconazole (+) (YEM 30 C. albicans wt; [8]): 4 µg/mL; FEPI MIC with fluconazole, 60% Inh (Aspergillus fumigatus; [9]): 64; FEPI MIC with fluconazole, 80% Inh (Aspergillus fumigatus; [10]): >64 |
| LL-F2849ζ (nemedectinζ) [Compound 17] | 64 | > 64 | 0.5 | > 64 | > 64 | > 64 | 2 | > 64 | > 64 | > 64 | > 64 | > 64 | > 64 | 16 | >64 | 4 | 4 | >64 | ≦0.03 | > 64 | MIC of compound in the presence of fluconazole (+) (YEM 30 C. albicans wt; [8]): ≦0.03; FEPI MIC with fluconazole, 60% Inh (Aspergillus fumigatus; [9]): 64; FEPI MIC with fluconazole, 80% Inh (Aspergillus fumigatus; [10]): 64 |
| CO[C@H]1C[C@@]2(O)/C(C=O)=C/C=C/[C@H](C)C/C(C)=C/C[C@@H]3C[C@@H](C[C@]4(CC[C@H](C)[C@@H](C)O4)O3)OC(=O)[C@@H]2C=C1C [Compound 5, Milbemycin β1 aldehyde] | 64 | > 64 | 0.25 | > 64 | > 64 | > 64 | 0.125 | > 64 | > 64 | > 64 | 64 | > 64 | > 64 | 0.5 | 32 | ≦0.063 | ≦0.063 | 64 | ≦0.03 | > 64 | MIC of compound in the presence of fluconazole (+) (YEM 30 C. albicans wt; [8]): ≦0.03; FEPI MIC with fluconazole, 60% Inh (Aspergillus fumigatus; [9]): 4; FEPI MIC with fluconazole, 80% Inh (Aspergillus fumigatus; [10]): 64 |
| 8-Methyl-5,6-dihydroxymilbemycin β1 [Compound 19] | 16 | > 64 | > 64 | > 64 | 8 | > 64 | 64 | > 64 | 32 | > 64 | 16 | > 64 | 8 | 8 | >64 | ≦0.063 | ≦0.063 | 64 | ≦0.03 | > 64 | MIC of compound in the presence of fluconazole (+) (YEM 30 C. albicans wt; [8]): ≦0.03; FEPI MIC with fluconazole, 60% Inh (Aspergillus fumigatus; [9]): 32; FEPI MIC with fluconazole, 80% Inh (Aspergillus fumigatus; [10]): 64 |
| CC1=C[C@H]2C(=O)O[C@H]3C[C@@H](C/C=C(\C)C[C@@H](C)/C=C/C=C4\CO[C@H]([C@@H]1O)[C@@]42O)O[C@@]1(CC[C@H](C)[C@@H](C(C)C)O1)C3 [Compound 12, Milbemycin D] | 64 | > 64 |  | > 64 |  | > 64 | 32 | > 64 | > 64 | > 64 | > 64 | > 64 | > 64 | 8 | >64 | 0.125 | 1 | >64 | ≦0.03 | > 64 | MIC of compound in the presence of fluconazole (+) (YEM 51 C. glabrata wt): 8 µg/mL; MIC of compound in the presence of fluconazole (+) (YEM 53 C. krusei): 8 µg/mL; MIC of compound in the presence of fluconazole (+) (YEM 30 C. albicans wt): 4 µg/mL; FEPI MIC with fluconazole, 60% Inh (Aspergillus fumigatus): 16; FEPI MIC with fluconazole, 80% Inh (Aspergillus fumigatus): >64 |

Reference: patent US6495591B1, “Fungal efflux pump inhibitors” (Essential Therapeutics, Inc., priority 1997, dated 2002)
